Measured values as given in ChEMBL document CHEMBL1145537, “Combination of tigecycline and N-acetylcysteine reduces biofilm-embedded bacteria on vascular catheters” (Antimicrob Agents Chemother, 2007).
Active and inactive are the calls of the source.

Experiments:
Assay type in all cases: functional, organism-based
[1] = system: Staphylococcus aureus; assay: Antimicrobial activity against catheter-associated biofilm of methicillin-sensitive Staphylococcus aureus assessed as reduction of CFU
[2] = system: Acinetobacter baumannii; assay: Antimicrobial activity against catheter-associated biofilm of Acinetobacter baumannii assessed as reduction of CFU
[3] = system: Staphylococcus epidermidis; assay: Antimicrobial activity against catheter-associated biofilm of methicillin-resistant Staphylococcus epidermidis assessed as reduction of CFU
[4] = system: Staphylococcus aureus; assay: Antimicrobial activity against catheter-associated biofilm of methicillin-resistant Staphylococcus aureus assessed as reduction of CFU
[5] = system: Klebsiella pneumoniae; assay: Antimicrobial activity against catheter-associated biofilm of Klebsiella pneumoniae assessed as reduction of CFU
[6] = system: Staphylococcus aureus; assay: Antimicrobial activity against catheter-associated biofilm of methicillin-resistant Staphylococcus aureus
[7] = system: Klebsiella pneumoniae; assay: Antimicrobial activity against catheter-associated biofilm of Klebsiella pneumoniae
[8] = system: Staphylococcus epidermidis; assay: Antimicrobial activity against catheter-associated biofilm of methicillin-resistant Staphylococcus epidermidis

Measured: Activity

CN(C)c1cc(NC(=O)CNC(C)(C)C)c(O)c2c1C[C@H]1C[C@H]3[C@H](N(C)C)C(O)=C(C(N)=O)C(=O)[C@@]3(O)C(O)=C1C2=O
active: [1] | [2] | [3] | [4] | [5]

CC(=O)N[C@@H](CS)C(=O)O
active: [6] | [7] | [8]
